In publication PMC9465256, “Discovering monoacylglycerol lipase inhibitors by a combination of fluorogenic substrate assay and activity-based protein profiling” (Frontiers in Pharmacology, 2022):

Legend:
endogenous mouse MAGL = target: T1, endogenous mouse MAGL (Mus musculus, UniProt O35678); assay: Competitive ABPP, mouse brain membrane proteome: MAGL band; assay type: biochemical; details: FP-TAMRA 250 nM
T1 construct: on endogenous MAGL, we applied an ABPP assay with mouse brain membrane proteome; from tissue; host or cells: mouse brain membrane fraction
T1 sequence (O35678 1-303): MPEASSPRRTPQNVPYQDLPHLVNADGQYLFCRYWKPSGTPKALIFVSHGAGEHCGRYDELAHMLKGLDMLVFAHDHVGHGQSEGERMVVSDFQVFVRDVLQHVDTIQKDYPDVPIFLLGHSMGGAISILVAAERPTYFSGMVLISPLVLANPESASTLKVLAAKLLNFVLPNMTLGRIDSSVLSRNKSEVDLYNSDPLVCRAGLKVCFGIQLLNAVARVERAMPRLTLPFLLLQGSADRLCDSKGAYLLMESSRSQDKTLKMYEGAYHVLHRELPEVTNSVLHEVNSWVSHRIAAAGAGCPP
Description: Mouse brains were isolated according to guidelines approved by the ethical committee of Western China Hospital, Sichuan University (No. 2021765A). Mouse brains were dounce homogenized lysis buffer (20 mM HEPES, 2 mM DTT, 1 mM MgCl2, 25 U/mL benzonase) and incubated on ice for 15 min, followed by low-speed spin (2,500 g, 3 min, 4 C) to remove debris. The supernatant was subjected to ultracentrifugation (100,000 g, 45 min, 4°C) to generate the cytosolic fraction in the supernatant, as well as the membrane fraction as a pellet. After removal of the soluble supernatant, the pellet was resuspended in storage buffer (20 mM HEPES, 2 mM DTT) by pipetting. Total protein concentrations in membrane and soluble fractions were determined using a Qubit protein assay (Invitrogen). The obtained samples were stored at −80°C until further use.
The competitive ABPP selectivity assay was performed according to the previously reported protocol. Briefly, mouse brain membrane proteome (2 mg/ml, 20 µl) was preincubated for 30 min with 0.5 µl of DMSO (vehicle) or inhibitor (100 μM, finial concentration). Subsequently, the proteome-inhibitor complex was treated with the activity-based probe FP-TAMRA (250 nM, final concentration) for 20 min. […] The gels were then scanned and analyzed using a ChemiDoc MP system (Cy3 settings, BioRad). All the samples were measured and duplicated.

B16-F10 cells = assay: Cell viability assay (CCK-8), B16-F10; assay type: cell-based; details: for IC50: Mus musculus, read-out: Antiproliferation activity (pIC50 ± SEM) B16-F10 (converted)
Description: (§1) Various cancer cell lines, including human colon cancer cell line HT-29, ovarian cell line OVCAR-3, melanoma cell line B16-F10, skin squamous cancer cells A431, cervical cancer cells Hela, lung cancer cell lines A549, H1975, and HCC827, were purchased from American type culture collection (ATCC). A431, H1975, B16-F10, OVCAR-3, HT-29, HCC827, Hela, and A549 cells were cultured in Dulbecco’s modified Eagle medium (DMEM, Gibco) containing 10% fetal bovine serum (FBS, Gibco), penicillin (100 U/ml) and streptomycin (100 μg/ml). All cell lines were maintained in a humidified 37°C incubator with 5% CO2. The medium was refreshed every 2–3 days and the cells were passaged at ∼90% confluence by adding the fresh medium, followed by vigorously pipetting the resuspend cells. Of note, the cells were only washed with PBS when a significant number of dead cells were observed.
(§2) The antiproliferation activity of the compounds against the cancer cell lines was evaluated using Cell Counting Kit-8. Briefly, cells (∼1,000 per well) in 100 µl of culture medium were plated in a 96-well plate for 24 h and 100 µl of medium with different concentrations of the tested compounds was added to each well for 48 h. Then 10 μl of CCK8 solution (#CK04, Dojindo) was added and incubated at 37°C for 2 h. The absorbance of each well was measured with a plate reader (BioTeck) at 450 nm. Cell viability was calculated as follows: cell viability (%) = [(As-Ab)/(Ac-Ab)] × 100. Among them, As represents the absorbance of experimental wells, Ab represents the absorbance of blank wells and Ac represents the absorbance of control wells. The experiments were repeated at least three times and IC50 values were determined by plotting a log(inhibitor) v. s normalized response (Variable slope) dose–response curve generated using GraphPad Prism software.

HT-29 cells = assay: Cell viability assay (CCK-8), HT-29; assay type: cell-based, human; details: HT-29, 48 h; for IC50: Homo sapiens, read-out: Antiproliferation activity (pIC50 ± SEM) HT-29 (converted)
Description: as §1, §2

Hela cells = assay: Cell viability assay (CCK-8), Hela; assay type: cell-based; details: 48 h; for IC50: Homo sapiens, read-out: Antiproliferation activity (pIC50 ± SEM) Hela (converted)
Description: as §1, §2

A549 cells = assay: Cell viability assay (CCK-8), A549; assay type: cell-based; details: A549, 48 h; for IC50: Homo sapiens, read-out: Antiproliferation activity (pIC50 ± SEM) A549 (converted)
Description: as §1, §2

[1] = test system: panel of cancer cell lines (A431, H1975, B16-F10, OVCAR-3, HT-29, HCC827, Hela, A549); assay: Cell viability assay (CCK-8), panel of eight cancer cell lines; assay type: cell-based; details: 48 h; for antiproliferative screening across the cell line panel: 20 µM
Description: as §1, §2

[2] = test system: serine hydrolases labeled by FP-TAMRA in cancer cells; assay: Competitive ABPP in cancer cell lysates: selectivity / potential targets; assay type: biochemical; details: 100 µM, FP-TAMRA 500 nM, in-gel analysis
Description: To identify the potential off-targets of the compounds with anti-cancer activities, ABPP was applied. Cancer cells were seeded in the dishes and were washed with PBS, scraped, centrifugated (3,000 × g, 3 min) and pellets snap frozen in liquid in nitrogen. For ABPP experiments, the cell pellets were lysed by probe sonication (3 × 10 bursts) in PBS, followed by the determination of protein concentration of the intact cell lysate by Qubit assay. Subsequently, 20 µl of the cell lysate (1 mg/ml) was preincubated with 0.5 µl of DMSO (vehicle) or inhibitor (100 μM, finial concentration) for 30 min, followed by the treatment with FP-TAMRA (500 nM, final concentration) for 20 min. The reactions were then quenched by 10 µl sample buffer (×4). The obtained samples were directly loaded and resolved on SDS-PAGE gel (10% acrylamide). The gel-based ABPP results were then scanned and analyzed using a ChemiDoc MP system (Cy3 settings, BioRad).

Row | SMILES | inhibition at 100 µM (endogenous mouse MAGL) [%] | IC50 (B16-F10 cells; B16-F10, 48 h, CCK-8) [µM] | IC50 (HT-29 cells) [µM] | IC50 (Hela cells) [µM] | IC50 (A549 cells) [µM] | antiproliferative screening across the cell line panel [1] | IC50 ([1]; CCK-8, read-out: pIC50 towards all eight cancer cell lines (converted)) [µM] | selectivity / potential targets among serine hydrolases in cancer cells [2] | Antiproliferation activity (pIC50 ± SEM) B16-F10 (B16-F10 cells; B16-F10, 48 h, CCK-8) | Antiproliferation activity (pIC50 ± SEM) HT-29 (HT-29 cells) | Antiproliferation activity (pIC50 ± SEM) Hela (Hela cells) | Antiproliferation activity (pIC50 ± SEM) A549 (A549 cells) | inhibition of cell viability of B16-F10 (B16-F10 cells; 20 µM, 48 h) [%]
1 | C[C@H]1COC2=C1C(=O)C(=O)c1c2ccc2c1CCCC2(C)C [compound 23, Cryptotanshinone] | 50 to 60 | 7.94 | 10 | 7.94 | 3.16 | appreciable inhibition against almost all the tested cell lines | ≤ 10 | broad-spectrum inhibitor by targeting a number of serine hydrolases in cancer cells | – | – | – | – | –
2 | COc1ccc2cc3[n+](cc2c1OC)CCc1cc2c(cc1-3)OCO2 [compound 17, Berberine chloride] | – | > 10 | > 10 | > 10 | > 10 | – | – | No potential target was found | – | – | – | – | –
3 | Cl.N=c1ccn2c(n1)O[C@H]1[C@H](O)[C@@H](CO)O[C@H]12 [compound 1, Cyclocytidine HCl] | – | – | – | – | – | appreciable inhibition against almost all the tested cell lines | – | No potential target was found | 5.7 ± 0.2 | <5 | 5.0 ± 0.2 | 6.3 ± 0.2 | –
4 | COc1ccc(C(C)=O)c(O)c1 [compound 64, Paeonol] | – | > 10 | > 10 | > 10 | > 10 | selectively inhibited cell proliferation of A431 over other cell lines | – | No potential target was found | – | – | – | – | –
5 | O=c1cc(-c2ccc(O)cc2)oc2cc(O)cc(O)c12 [compound 9, Apigenin] | – | > 10 | > 10 | > 10 | > 10 | neglectable antiproliferative behavior to other cell lines | – | – | – | – | – | – | 54
